For 15 compounds, Ki results are on record in patent US20250213735A1, “NEUROPEPTIDE Y1 RECEPTOR (NPY1R) TARGETED THERAPEUTICS AND USES THEREOF” (Radionetics Oncology, Inc., priority 2023, published 2025).

The assay has as its target hNPY1R (Homo sapiens (Human), UniProt P25929). As to the kind of experiment: NPY1R binding assay (SK-N-MC membrane, [125I]-Peptide YY competition).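 Also: bound radioligand separated by filtration over GF/C filter plates and counted, Ki obtained by non-linear regression.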
The mark [1] stands for this setting: crude SK-N-MC membranes endogenously expressing NPY1R, [125I]-Peptide YY (human) 0.05 nM, 120 min at room temperature, read-out: hNPY1R binding Ki.

Each structure is given as a SMILES string. Where two headings read alike, the source gives them in different places.

Sequence of hNPY1R (P25929 whole entry): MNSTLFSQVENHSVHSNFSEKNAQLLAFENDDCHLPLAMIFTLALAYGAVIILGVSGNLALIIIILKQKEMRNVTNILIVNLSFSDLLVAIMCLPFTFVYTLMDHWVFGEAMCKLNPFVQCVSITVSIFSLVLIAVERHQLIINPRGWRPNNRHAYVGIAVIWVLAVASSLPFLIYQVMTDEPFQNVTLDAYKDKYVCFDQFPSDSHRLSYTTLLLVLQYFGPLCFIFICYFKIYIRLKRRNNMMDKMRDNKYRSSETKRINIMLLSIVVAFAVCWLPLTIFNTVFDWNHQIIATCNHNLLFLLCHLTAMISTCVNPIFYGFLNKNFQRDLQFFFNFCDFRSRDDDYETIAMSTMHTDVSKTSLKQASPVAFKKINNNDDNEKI

Broadly, the Ki is the dissociation constant of the complex between target and ligand, obtained from inhibition or displacement. Turning to `CCC(=O)NCCNC(=O)/N=C(/N)NCCC[C@@H](NC(=O)[C@H](c1ccc(CCCOCCOCCNC(=O)CN2CCN(CC(=O)O)CCN(CC(=O)O)CCN(CC(=O)O)CC2)cc1)N1Cc2ccccc2C1)C(=O)NCc1c(F)cc(O)cc1F` (single isomer, unassigned) [8A], under setting [1], the inhibition constant (Ki) is less than 10 nM.
Turning to `CCC(=O)NCCNC(=O)/N=C(/N)NCCC[C@@H](NC(=O)[C@@H](c1ccc(CCCOCCOCCNC(=O)CN2CCN(CC(=O)O)CCN(CC(=O)O)CCN(CC(=O)O)CC2)cc1)N1Cc2ccccc2C1)C(=O)NCc1c(F)cc(O)cc1F` (single isomer, unassigned) [8B], the inhibitory constant (Ki) under setting [1] fell in the range of 10 to 100 nM.
On the same count and under the same terms, as for `CCC(=O)NCCNC(=O)/N=C(/N)NCCC[C@@H](NC(=O)[C@H](c1cccc(NC(=O)CCCNc2c(NCCCCCCNC(=O)CN3CCN(CC(=O)O)CCN(CC(=O)O)CCN(CC(=O)O)CC3)c(=O)c2=O)c1)N1Cc2ccccc2C1)C(=O)NCc1c(F)cc(O)cc1F` (single isomer, unassigned) [31A], the figure is less than 10 nM; as for `CCC(=O)NCCNC(=O)/N=C(/N)NCCC[C@@H](NC(=O)[C@@H](c1cccc(NC(=O)CCCNc2c(NCCCCCCNC(=O)CN3CCN(CC(=O)O)CCN(CC(=O)O)CCN(CC(=O)O)CC3)c(=O)c2=O)c1)N1Cc2ccccc2C1)C(=O)NCc1c(F)cc(O)cc1F` (single isomer, unassigned) [31B], less than 10 nM; as for `CCC(=O)NCCNC(=O)/N=C(/N)NCCC[C@@H](NC(=O)C(c1cccc(NC(=O)CCCNC(=O)[C@@H](CO)NC(=O)CCNC(=O)CN2CCN(CC(=O)O)CCN(CC(=O)O)CCN(CC(=O)O)CC2)c1)N1Cc2ccccc2C1)C(=O)NCc1c(F)cc(O)cc1F` (single isomer, unassigned) [32A], less than 10 nM.
On the same count and under the same terms, as for `CCC(=O)NCCNC(=O)/N=C(/N)NCCC[C@@H](NC(=O)C(c1ccc(OCCCN)cc1)N1Cc2ccccc2C1)C(=O)NCc1c(F)cc(O)cc1F` (stereo in doubt) [compound 62, (R)-2-((S)-2-(4-(3-aminopropoxy)phenyl)-2-(isoindolin-2-yl)acetamido)-N-(2,6-difluoro-4-hydroxybenzyl)-5-((Z)-2-((2-propionamidoethyl)carbamoyl)guanidino)pentanamide], the figure is less than 10 nM.
Turning to `CCC(=O)NCCNC(=O)/N=C(/N)NCCC[C@@H](NC(=O)[C@H](c1ccc(OCCCNC(=O)CCCCCNC(=O)CN2CCN(CC(=O)O)CCN(CC(=O)O)CCN(CC(=O)O)CC2)cc1)N1Cc2ccccc2C1)C(=O)NCc1ccc(O)cc1` [1A, 2,2′,2″-(10-(2-((6-((3-(4-((1S,4R,Z)-9-amino-4-((4-hydroxybenzyl)carbamoyl)-1-(isoindolin-2-yl)-2,11,16-trioxo-3,8,10,12,15-pentaazaoctadec-9-en-1-yl)phenoxy)propyl)amino)-6-oxohexyl)amino)-2-oxoethyl)-1,4,7,10-tetraazacyclododecane-1,4,7-triyl)triacetic acid], the Ki under setting [1] was less than 10 nM.
Compound `CCC(=O)NCCNC(=O)/N=C(/N)NCCC[C@@H](NC(=O)[C@H](c1ccc(OCCCNC(=O)CCCCCNC(=O)CN2CCN3CCN4CCN(CC2)CC(=O)[O][Ga]([O]C(=O)C3)[O]C(=O)C4)cc1)N1Cc2ccccc2C1)C(=O)NCc1ccc(O)cc1` [1A-Ga, Gallium (III) 2,2′,2″-(10-(2-((6-((3-(4-((1S,4R,Z)-9-amino-4-((4-hydroxybenzyl)carbamoyl)-1-(isoindolin-2-yl)-2,11,16-trioxo-3,8,10,12,15-pentaazaoctadec-9-en-1-yl)phenoxy)propyl)amino)-6-oxohexyl)amino)-2-oxoethyl)-1,4,7,10-tetraazacyclododecane-1,4,7-triyl)triacetate] displayed a Ki of less than 10 nM.
`CCC(=O)NCCNC(=O)/N=C(/N)NCCC[C@@H](NC(=O)[C@@H](c1ccc(OCCCNC(=O)CCCCCNC(=O)CN2CCN(CC(=O)O)CCN(CC(=O)O)CCN(CC(=O)O)CC2)cc1)N1Cc2ccccc2C1)C(=O)NCc1ccc(O)cc1` [1B, 2,2′,2″-(10-(2-((6-((3-(4-((1R,4R,Z)-9-amino-4-((4-hydroxybenzyl)carbamoyl)-1-(isoindolin-2-yl)-2,11,16-trioxo-3,8,10,12,15-pentaazaoctadec-9-en-1-yl)phenoxy)propyl)-amino)-6-oxohexyl)amino)-2-oxoethyl)-1,4,7,10-tetraazacyclododecane-1,4,7-triyl)triacetic acid-2,2,2-trifluoroacetic acid (1/1)]: the Ki under setting [1] is 100 to 1000 nM.
Same read-out and setting: the same measure for `CCC(=O)NCCNC(=O)/N=C(/N)NCCC[C@@H](NC(=O)[C@H](c1cccc(NC(=O)CCCNC(=O)CCCCCNC(=O)CN2CCN(CC(=O)O)CCN(CC(=O)O)CCN(CC(=O)O)CC2)c1)N1Cc2ccccc2C1)C(=O)NCc1ccc(O)cc1` [3A, 2,2′,2″-(10-(2-((6-((4-((3-((1S,4R,Z)-9-amino-4-((4-hydroxybenzyl)carbamoyl)-1-(isoindolin-2-yl)-2,11,16-trioxo-3,8,10,12,15-pentaazaoctadec-9-en-1-yl)phenyl)amino)-4-oxobutyl)amino)-6-oxohexyl)amino)-2-oxoethyl)-1,4,7,10-tetraazacyclododecane-1,4,7-triyl)triacetic acid-2,2,2-trifluoroacetic acid (1/1)]: less than 10 nM; for `CCC(=O)NCCNC(=O)/N=C(/N)NCCC[C@@H](NC(=O)[C@@H](c1cccc(NC(=O)CCCNC(=O)CCCCCNC(=O)CN2CCN(CC(=O)O)CCN(CC(=O)O)CCN(CC(=O)O)CC2)c1)N1Cc2ccccc2C1)C(=O)NCc1ccc(O)cc1` [3B, 2,2′,2″-(10-(2-((6-((4-((3-((1R,4R,Z)-9-amino-4-((4-hydroxybenzyl)carbamoyl)-1-(isoindolin-2-yl)-2,11,16-trioxo-3,8,10,12,15-pentaazaoctadec-9-en-1-yl)phenyl)amino)-4-oxobutyl)amino)-6-oxohexyl)amino)-2-oxoethyl)-1,4,7,10-tetraazacyclododecane-1,4,7-triyl)triacetic acid]: less than 10 nM; for `CCC(=O)NCCNC(=O)/N=C(/N)NCCC[C@@H](NC(=O)[C@H](c1ccccc1)N1Cc2ccccc2C1)C(=O)NCc1ccc(O)cc1` [60A, (R)—N-(4-hydroxybenzyl)-2-((S)-2-(isoindolin-2-yl)-2-phenylacetamido)-5-((Z)-2-((2-propionamidoethyl)carbamoyl)guanidino)pentanamide]: less than 10 nM.
In the case of `CCC(=O)NCCNC(=O)/N=C(/N)NCCC[C@@H](NC(=O)[C@@H](c1ccccc1)N1Cc2ccccc2C1)C(=O)NCc1ccc(O)cc1` [60B, (R)—N-(4-hydroxybenzyl)-2-((R)-2-(isoindolin-2-yl)-2-phenylacetamido)-5-((Z)-2-((2-propionamidoethyl)carbamoyl)guanidino)pentanamide], the Ki under setting [1] lay in the range of 10 to 100 nM.
The same measure, in the same setting: as for `CCC(=O)NCCNC(=O)/N=C(/N)NCCC[C@@H](NC(=O)[C@H](c1ccccc1)N1Cc2ccccc2C1)C(=O)NCc1c(F)cc(O)cc1F` [61A, (R)—N-(2,6-difluoro-4-hydroxybenzyl)-2-((S)-2-(isoindolin-2-yl)-2-phenylacetamido)-5-((Z)-2-((2-propionamidoethyl)carbamoyl)guanidino)pentanamide], the figure is less than 10 nM; as for `CCC(=O)NCCNC(=O)/N=C(/N)NCCC[C@@H](NC(=O)[C@@H](c1ccccc1)N1Cc2ccccc2C1)C(=O)NCc1c(F)cc(O)cc1F` [61B, (R)—N-(2,6-difluoro-4-hydroxybenzyl)-2-((R)-2-(isoindolin-2-yl)-2-phenylacetamido)-5-((Z)-2-((2-propionamidoethyl)carbamoyl)guanidino)pentanamide], less than 10 nM.
